Data on one compound can be found in patent publication US20110251220A1, “Pharmaceutical compositions comprising gamma secretase modulators” (priority 2008, published 2011).

The subject of data set [1] is OPM-2 cocultured with OCL. Description: OPM-2/OCL coculture, apoptosis of OPM-2 by AnnexinV-FITC/PI staining. Type of data set: cell-based, human. Particulars: 60 μM GSI15, 48 h. The procedure: Human MM cell lines used were as follows: NCI-H929, OPM-2, LP-1, RPMI-8226, U266 (DSMZ, Braunschweig, Germany). Cell lines were cultured in RPMI 1640 medium (Biochrom, Berlin, Germany) supplemented with 10% heat-inactivated fetal calf serum (FCS, Gibco, Karlsruhe, Germany), 1 mM sodium pyruvate and 100 units/ml penicillin and 100 μg/ml streptomycin (Gibco). Human osteoclasts were obtained as described in the reference of Zavrski I, Krebbel H, Wildemann B, et al. Proteasome inhibitors abrogate osteoclast differentiation and osteoclast function. Biochem Biophys Res Commun. 2005; 333:200-205. Briefly, peripheral blood mononuclear cells (PBMC) were isolated from whole blood of healthy volunteers, using a Ficoll-Hypaque density gradient. […]
For cell cycle analysis 2×10^5 cells were spun down, medium was aspirated and cells washed with PBS. […] After 10 minutes incubation in the dark at room temperature, cells were analyzed by flow cytometry. The amount of apoptotic cells was determined by AnnexinV/propidium iodide staining using Human AnnexinV-FITC Kit (Bender Medsystems, Vienna, Austria), according to manufacturer's protocol. […] Cells were then spun down again, resuspended in binding buffer containing PI and analyzed by flow cytometry.

Data set [2] has as its system male Sprague-Dawley rats. As to the kind of experiment: PAN-model of albuminuric glomerular disease. Type of data set: in vivo, rat. Particulars: day 7, 500 μg/100 g rat i.p. once per day, compared to PAN alone. The procedure:
For the in vivo studies male Sprague-Dawley rats were purchased from Charles River and treated with puromycin aminoglycoside (PAN) to induce albuminuric glomerular disease as described previously (Niranjan et al., “The Notch pathway in podocytes plays a role in the development of glomerular disease.” Nat. Med. 14: 290-298, 2008). Rats were injected PAN (150 mg/kg) once. The test compounds were administered intraperitoneally (500 μg/100 g rat) once per day (n=4 animals per group). Injection of test compounds were started one day after PAN injection. All studies were performed in accordance with the European Union normative. As a positive control one group of rats received gamma secretase inhibitor DAPT.
Urinary albumine was measured at the indicated days as described previously (Sanchez-Nino et al., “The MIF receptor CD74 in diabetic podocyte injury”. J. Am. Soc. Nephrol. 20: 353-362, 2009). For total protein measurement urine samples were centrifuged and pellets were diluted in distilled water. Exton reagent (230 mM sulfosalic acid, 1.4 M sodium sulfate) was added and after 10 minutes absorbance was measured at 620 nm.

Data set [3] in a line: Physiological compatibility, parenteral administration in mice. Particulars: in vivo, other: parenteral, mouse. The procedure: The compound according to example 1 was tested for its physiological compatibility via parenteral administration in mice. The LD50 (parenteral, mouse) is 800 mg/kg. Accordingly compound 1 can be considered to be physiologically compatible.
In data set [4] the test system is MM cells. As to the kind of experiment: Proliferation assay (CellTiter-Glo), concentration of 50% growth inhibition. Type of data set: cell-based. Particulars: Homo sapiens; read-out: Concentration at which 50% cell growth inhibition was observed. The procedure:
Human MM cell lines used were as follows: NCI-H929, OPM-2, LP-1, RPMI-8226, U266 (DSMZ, Braunschweig, Germany). Cell lines were cultured in RPMI 1640 medium (Biochrom, Berlin, Germany) supplemented with 10% heat-inactivated fetal calf serum (FCS, Gibco, Karlsruhe, Germany), 1 mM sodium pyruvate and 100 units/ml penicillin and 100 μg/ml streptomycin (Gibco). Human osteoclasts were obtained as described in the reference of Zavrski I, Krebbel H, Wildemann B, et al. Proteasome inhibitors abrogate osteoclast differentiation and osteoclast function. Biochem Biophys Res Commun. 2005; 333:200-205. Briefly, peripheral blood mononuclear cells (PBMC) were isolated from whole blood of healthy volunteers, using a Ficoll-Hypaque density gradient. The adherent fraction of the isolated mononuclear cells was cultured for 21 days in MEM medium (Sigma-Aldrich Chemie, Taufkirchen, Germany) supplemented with 10% FCS, 100 U/ml penicillin, 100 μg/ml streptomycin, 50 ng/ml M-CSF, and 25 ng/ml RANKL (osteoclastogenic medium), before coculture experiments and treatment with the inventive compounds started. Human osteoblasts were obtained according to Robey P G, Termine J D. Human bone cells in vitro. Calcif Tissue Int. 1985; 37:453-460 as described in Hecht M, Heider U, Kaiser M, von Metzler I, Sterz J, Sezer O. Osteoblasts promote migration and invasion of myeloma cells through upregulation of matrix metalloproteinases, urokinase plasminogen activator, hepatocyte growth factor and activation of p38 MAPK. Br J Haematol. 2007; 138: 446-458. Briefly, trabecular bone specimens from patients without malignant disease undergoing knee or hip surgery were minced and washed to remove bone marrow cells. The bone fragments were resuspended in Dulbecco's modified Eagle's medium (DMEM)/HAM's F12 medium (Biochrom, Berlin, Germany) supplemented with 10% FCS and cultured in tissue culture flasks until a confluent cell monolayer was obtained. Culturing of functional osteoblasts was confirmed by alkaline phosphatase (ALP) staining (kit from Sigma, USA), realtime RT-PCR analysis of expression of osteoblast markers (ALP, osteocalcin) and by von-Kossa staining before coculture and treatment experiments were started.
The compound according to example 1, hereinafter referred to as GSI15, (compound RH02015SC, Maybridge, Acros Organics, Geel, Belgium) was freshly dissolved as 26 mM stock solution in Dimethylsulfoxide (DMSO). Multiple myeloma therapeutics used were melphalan (marketed as Alkeran®, GlaxoSmithKline, Munich, Germany) and bortezomib (marketed as Velcade®, Janssen-Cilag, Neuss, Germany). Melphalan was freshly dissolved at 10 mg/ml in 0.9% NaCl-solution. Bortezomib was freshly dissolved at 100 ng/ml in 0.9% NaCl solution. Gamma Secretase Inhibitor (GSI) treatment for apoptosis assessment by AnnexinV/PI staining, cell cycle analysis and coculture experiments was performed in 6-well plates. GSI15 stock solution was added directly to the cell suspension. GSI treatment for assaying proliferation was performed in 96-well plates. 10,000 cells per well were seeded in 50 μl medium per well before 50 μl of a 2× solution of GSI15 prediluted in medium were added per well. […]
For assaying proliferation/viability of cells CellTiter-Glo Luminescent Cell Viability Assay (Promega, Mannheim, Germany) was used. In this assay the number of viable cells at a given time point is determined by quantification of ATP present, which serves as a measure of metabolically active cells. […]
(In ATP-based viability assays light output follows the ATP content of the culture.)

What is called LD50 is the dose expected to kill half of the subjects tested. Turning to `CC(C)c1ccc(S(=O)(=O)Nc2cccnc2Oc2ccc(Cl)cc2)cc1` [Example 1, N-(2-(4-chlorophenoxy)pyridin-3-yl)-4-isopropylbenzenesulfonamide], the “overall amount of apoptotic cells” value in data set [1] was 83%. Further, in data set [2], the inhibition of albuminuria is reported as 56% and the inhibition of proteinuria was 50%. For the same compound, the LD50 in data set [3] was 800 mg/kg. In addition, the IC50 in data set [4] was 20 µM.
